Where “and” joins values, the source holds several entries; their conditions need not be identical. Identical values can stand only once. Calls of active or inactive are those of the source.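 The calls were made as follows: active = fitted half-maximal concentration for a cytotoxic signal drop no higher than ten times the top valid dose tested; inconclusive = flat curve between -70 and -30 percent, or an unreliable fit; inactive = flat within 30 percent, signal rise, or potency beyond limit.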
System: HeLa viability, CellTiter-Glo ATP luminescence, 24 h
Assay: HeLa cell cytotoxicity, dose response, cytotoxicity control, 24 h, cherry-picked samples (AID 504726);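 as to activity change, negative = cytotoxicity: 0% = DMSO neutral controls and -100% = mitoxantrone positive controls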
Settings: not given

SMILES	AC50
O=C1c2c(O)ccc(O)c2C(=O)c2c(NCCNCCO)ccc(NCCNCCO)c21	1.36 µM and 4.08 µM

System: not listed separately
Assay: as above
Settings: HeLa viability, CellTiter-Glo ATP luminescence, 24 h; at 35 µM (top of the series)

SMILES	activity change, negative = cytotoxicity
COc1ccc(C2C(C(=O)c3cccs3)=C(O)C(=O)N2c2nncs2)cc1 (stereo not given)	-14.2% (inactive)
O=c1c2cc(O)c(O)cc2oc2cc(O)c(C3OC(CO)C(O)C(O)C3O)c(O)c12 (stereo not given)	3.92% (inactive)
O=C(COc1ccccc1Cc1ccccc1)NCCCN1CCOCC1	-9.39% (inactive)
O=C(c1cccc(S(=O)(=O)NCc2ccccc2)c1)N1CCN(c2ccccc2Cl)CC1	0.089% (inactive)
CCOC(=O)C1C2C=CC3(CN(c4cccc(Cl)c4)C(=O)C13)O2 (stereo not given)	-5.58% (inactive)
Nc1ccccc1C(=O)N1O[C@@H]2C=C[C@H]1CC2	-9.71% (inactive)
O=c1oc2ccccc2nc1/C=C(\O)c1ccc(Br)cc1	-12.7% (inactive)
COc1ccc(C2(CNC(=O)CCC(=O)O)CCCC2)cc1OC	-16% (inactive)
O=C(O)CCN1C(=O)/C(=C\c2ccc(-c3nc4ccccc4s3)o2)SC1=S	1.33% (inactive)
CC(C)CN(C(=O)CSc1nncn1C)C1CCS(=O)(=O)C1 (stereo not given)	4.85% (inactive)
CCC1(c2ccccc2)NC(=O)N(CC(=O)Nc2ccc(OC)nc2)C1=O (stereo not given)	-1.91% (inactive)
CCOC(=O)C1CCCN(C(=O)C2c3ccccc3Oc3ccccc32)C1 (stereo not given)	-6.62% (inactive)
Cc1ccc(N(CC(=O)N2CCOCC2)S(C)(=O)=O)cc1	-3.08% (inactive)
O=C(NCC1CCCO1)c1cccc(S(=O)(=O)N(Cc2ccccc2)c2ccccc2)c1 (stereo not given)	-6.52% (inactive)
CC(C)N(Cc1ccccc1)C(=O)Cn1c(=O)cnc2ccccc21	0.817% (inactive)
O=C(O)c1ccc(NS(=O)(=O)c2ccc3c(c2)C2C=CCC2C(c2ccccc2F)N3)cc1 (stereo not given)	-8.24% (inactive)
Cc1cccnc1NC1(C(F)(F)F)N=C2SCCN2C1=O (stereo not given)	-2.93% (inactive)
CN(C)CCCNC(=O)c1ccccc1Oc1ccccc1	-6.34% (inactive)
COC(=O)C1=COC(C)C2CN3CCc4c([nH]c5ccccc45)C3CC12 (stereo not given)	-14.1% (inactive)
CC(C)c1ccc(CNc2ccc([N+](=O)[O-])cn2)cc1	-10.7% (inactive)
CSc1ccc(/C=N/Nc2cccc(C(=O)O)c2)cc1	-13% (inactive)
Cc1ccsc1/C=N/NC(=O)Cc1ccc(Cl)cc1	1.7% (inactive)
COCCNC(=O)Nc1ccc2nc(-c3ccco3)c(-c3ccco3)nc2c1	-18.1% (inactive)
O=C(CSc1nc2ccccc2[nH]1)Nc1cccc(S(=O)(=O)N2CCOCC2)c1	3.94% (inactive)
O=C1CCCC2=C1C(c1ccc(O)c(O)c1)Nc1ccc3ncccc3c12 (stereo not given)	-1.08% (inactive)

SMILES	activity change, negative = cytotoxicity
COc1ccc(/C=C/c2cc(C(F)(F)F)[nH]c(=O)n2)cc1OC	-6.08% (inactive)
Cc1ccc2c(c1)nnn2C1CCN(C(=O)c2cccs2)CC1	-7.39% (inactive)
CC(C)Cc1nc(SCC(=O)Nc2nnc(CC(C)C)s2)n[nH]1	-15% (inactive)
COc1cccc(NC(=S)N2CCN(C(c3ccccc3)c3ccccc3)CC2)c1	-2.14% (inactive)
COc1cc(SC)ccc1C(=O)OCC(=O)N1CCN(C(C)=O)CC1	11.9% (inactive)
CCC(=O)Oc1ccc2c(c1)O/C(=C\c1ccco1)C2=O	4.02% (inactive)
CCC(C)[C@H](NC(=O)[C@@H]1Cc2ccccc2CN1)C(=O)Nc1ccc2c(c1)OCO2 (stereo not given in full)	-9.19% (inactive)
CCNc1nc(NC(C)C)nc(NS(=O)(=O)c2ccc(N)cc2)n1	-6.72% (inactive)
Cc1ccc(N2CC(C(=O)Nc3nnc(SCC(=O)Nc4nc(C)cs4)s3)CC2=O)cc1 (stereo not given)	-3.6% (inactive)
CN(c1ccc(OCC(=O)OCC(=O)c2c(N)n(C)c(=O)n(C)c2=O)cc1)S(=O)(=O)c1ccc2ccccc2c1	3.95% (inactive)
Oc1ccc2ccc3cccc[n+]3c2c1	-13.8% (inactive)
O=C(O)CCCCCn1c(SCC(=O)c2ccc(O)c(O)c2)nc2ccsc2c1=O	-16.5% (inactive)
COc1ccccc1N1CCN(S(=O)(=O)c2c(C)[nH]c(C)c2C(=O)N2CCCC2)CC1	3.8% (inactive)
O=C(/C=N/NC(=O)c1ccc(Cl)cc1Cl)c1ccccc1	1.59% (inactive)
CC(C)CCN1C(=O)c2cccc3c(N)ccc(c23)C1=O	-14.7% (inactive)
NNC(=S)Nc1ccc(S(=O)(=O)N2CCOCC2)cc1	0.037% (inactive)
Nc1c(-c2ccccn2)cnn1-c1nc(-c2ccc(F)cc2)cs1	-5.27% (inactive)
Cc1cc(=O)c2c([nH]1)c(C)cc1[nH]c(C)c(C)c12	-3.16% (inactive)
CSCCC(NC(=O)c1ccccc1Cl)C(=O)N1CCCC(C)C1 (stereo not given)	-15.7% (inactive)
Cc1ccc(NS(=O)(=O)c2ccc(C(=O)NCCCN3CCCC3=O)cc2)cc1	-5.92% (inactive)
O=C(c1ccccc1)c1ccc(O)cc1O	-20.5% (inactive)
O=C(O)c1cccc(NC2=Nc3cccc4cccc2c34)c1	-4.32% (inactive)
COc1cccc(-c2cc(C(=O)N3CCN(S(=O)(=O)c4ccccc4)CC3)[nH]n2)c1	-17.3% (inactive)
CCCc1cc(C(=O)Nc2ccc(C(=O)c3ccc(C)cc3)cc2)n(C)n1	2.14% (inactive)
CCOC(=O)C1Nc2ccc(C(=O)O)cc2C2C=CCC12 (stereo not given)	-9.32% (inactive)

SMILES	activity change, negative = cytotoxicity
Cc1c(Cl)cccc1NS(=O)(=O)c1ccc2c(c1)C1C=CCC1C(c1ccc(C(=O)O)cc1)N2 (stereo not given)	-10.8% (inactive)
COc1[nH]c(/N=C/c2ccccc2)c(C#N)c1C#N	-1.43% (inactive)
CCOc1ccc(S(=O)(=O)N(C)c2ccc(OCC(=O)NC3=NCCS3)cc2)cc1	-12.3% (inactive)
O=C(O)c1ccccc1NC(=O)c1cc(-c2ccccc2)nc2ccccc12	-2.32% (inactive)
COc1c2c(nc3occc13)C(CCC(C)(C)O)(OC)C(O)CC2 (stereo not given)	-4.6% (inactive)
COCCN(C(=O)CN1CCCc2ccccc21)c1c(N)n(Cc2ccccc2)c(=O)[nH]c1=O	3.65% (inactive)
O=C(NC12CC3CC(CC(C3)C1)C2)N1CCN(c2ncccn2)CC1	12.9% (inactive)
COc1ccc(NC(=O)NS(=O)(=O)c2ccc(C)cc2)cn1	-5.07% (inactive)
CN(C)c1ccc(O)c2c1CC1CC3[C@@H](N(C)C)C(=O)C(C(N)=O)=C(O)[C@]3(O)C(=O)C1=C2O (stereo not given in full)	-1.73% (inactive)
O=C(CN1C(=O)NC2(CCCC2)C1=O)Nc1ccccc1-c1ccccc1	-3.7% (inactive)
CCOC(=O)C1=C(O)/C(=C/c2cc(C)n(-c3ccccc3)c2C)N=C1C	3.92% (inactive)
COc1cc(C(=O)O)cc(NC(=O)c2ccco2)c1OC	-8.57% (inactive)
NC(=S)N/N=C/c1cn(CCC(=O)O)nc1-c1cccc(Br)c1	-7.24% (inactive)
O=C(O)/C=C/C(=O)Nc1ccc(Cc2ccc(NC(=O)/C=C/C(=O)O)cc2)cc1	6.62% (inactive)
CC(C)CC(=O)Nc1ccc(S(=O)(=O)N2CC3CC(C2)c2cccc(=O)n2C3)cc1 (stereo not given)	1.91% (inactive)
Cc1ccccc1NC(=O)CN1C(=O)N/C(=C\c2cccn2-c2cccc(C(=O)O)c2)C1=O	-8.21% (inactive)
CC(C)=C1C2C=CC1C(C(=O)Nc1cc(C)ccc1C)C2C(=O)O (stereo not given)	-4.56% (inactive)
COC(=O)c1ccccc1OCC(=O)N1CCN(c2ccc(Cl)cc2)CC1	-6.81% (inactive)
O=C(O)Cc1c[nH]c2cccc(O)c12	-14.7% (inactive)
CCC(Sc1ncccc1C(=O)O)C(=O)N1CCCC1 (stereo not given)	3.53% (inactive)
O=C(CCNc1ccc(Cc2ccncc2)cc1)c1cccc([N+](=O)[O-])c1	-10% (inactive)
CC1CC(C)(C)NC(=S)N1CC(=O)N(C)Cc1ccccc1 (stereo not given)	-2.63% (inactive)
Cn1c(=O)oc2cc(S(=O)(=O)CCC(=O)N3CCN(c4ccccc4F)CC3)ccc21	-1.08% (inactive)
O=C(O)c1ccc(-n2cccc2/C=C2/NC(=O)N(c3cccc(Cl)c3)C2=O)cc1	-3.84% (inactive)

From PubChem BioAssay AID504726 (Broad Institute, 2011)
